Reference: patent US20100310478A1, “SUBSTITUTED BENZOQUINONES AND HYDROQUINONES IN THE TREATMENT OF PERIODONTAL DISEASES” (priority 2007, published 2010)
Converted amounts (≈) assume the structure as drawn. Read-outs that look alike come from different tables or passages of the source.

Tests used:
P. gingivalis NCTC 11834 [1] = experiment: Minimum inhibitory concentration (MIC) assay; assay type: cell-based, Porphyromonas gingivalis
Description: (§1) P. gingivalis strains were cultured and maintained on Wilkins-Chalgren Anaerobe Medium (agar and broth) at pH 7.0; all cultures were incubated anaerobically at 37° C. for 5-7 days. This is a standard international method for quantitatively assessing the antimicrobial activity of a compound in a liquid medium. The method used a sterile 96-well microtitre plate, capable of holding about 200 μl of liquid per well. […] The culture medium was as described above. The wells were inoculated with a liquid suspension of freshly grown micro-organism and incubated under the conditions described above. After incubation, the microtitre plate was examined visually (with the aid of a light box) for cloudiness in each well, which would indicate microbial growth. The MIC value was recorded as the lowest concentration of test compound required to inhibit microbial growth, ie the lowest concentration for which the liquid in the well remained clear. The assays were conducted in duplicate (minimum) and included both negative (culture medium with no micro-organisms) and positive (culture medium plus diluting solvent plus micro-organism) controls.

P. gingivalis NCTC 11834 [2] = experiment: Minimum bactericidal concentration (MBC) assay; assay type: cell-based, Porphyromonas gingivalis
Description: P. gingivalis strains were cultured and maintained on Wilkins-Chalgren Anaerobe Medium (agar and broth) at pH 7.0; all cultures were incubated anaerobically at 37° C. for 5-7 days.
(§2) This assay, normally carried out after an MIC assay, determines the minimum concentration of a compound that is lethal to the micro-organism being tested.
(§3) These samples were then individually sub-cultured on antibiotic-free agar medium, under the incubation conditions described above. Following incubation they were examined visually for microbial growth.
(§4) The ratio of MIC to MBC should ideally be as close to 1 as possible.

P. gingivalis NCTC 11834 [3] = experiment: Short-contact kill assay (SCKA); assay type: cell-based, Porphyromonas gingivalis; settings: 0.2% (w/v)
Description: (§5) This quantitative assay was designed to determine the relative potency of a test compound or combination of test compounds to kill a test micro-organism over a short-contact time period (up to 5 minutes).
(§6) Samples from a culture of micro-organisms (ca. 1×10^8 cfu/ml) prepared in phosphate buffered saline (PBS) containing the relevant test compound(s) were taken at timed intervals (between 0 and 5 minutes), 10-fold serially diluted in PBS and then inoculated onto agar plates in triplicate. A culture containing only the solvent(s) used to dissolve the test compound(s) acted as a control for the assay (maximum solvent load 2.5% v/v).
(§7) The plates were then incubated as described above and subsequently examined visually for growth. Colonies were counted at an appropriate serial dilution (5-50 individual colonies visible) with the aid of a colony counter. These measurements were then converted to numbers of colony forming units (cfu), using the formula: cfu/ml=number of colonies×serial dilution factor×100 (as only a […] was taken).
(§8) These cfu values were then converted into […] values and plotted graphically against time of sample removal.
(§9) At each time point, samples were assessed in triplicate; the final cfu/ml value was an average (mean) of the three readings.
(§10) SCKAs, as described above, were carried out using TBHQ as the test compound. Chlorhexidine was used as a positive control and 2.5% ethanol as a negative control.
(§11) For the SCKA experiments, the TBHQ and chlorhexidine were both tested at concentrations of 0.2% w/v. The TBHQ was dissolved in ethanol and the chlorhexidine in distilled water. All the experiments were conducted in triplicate.

[4] = test system: P. gingivalis 381 biofilm; experiment: Biofilm disruption assay on hydroxyapatite discs; assay type: cell-based, Porphyromonas gingivalis; settings: 0.2% (w/v)
Description: (§12) This assay was designed to determine quantitatively the relative potency of a test compound to disrupt (effectively kill) biofilms formed by a test organism on hydroxyapatite (HA) discs. Biofilms were formed on sterile dense ceramic HA discs 7 mm diameter×1.8 mm thick (Clarkson Chromatography) by placing the discs in the appropriate liquid media (as described above) inoculated with the test organism (0.5×10^8 cfu/ml). The HA discs were then incubated at 37° C. for ˜48 hours in a 5% CO2 atmosphere (for S. mutans ATCC 25175) or ˜96 hours under anaerobic conditions (for P. gingivalis 381). Following the incubation period the supernatant was removed from the wells containing the HA discs and the discs were washed x3 with fresh media to ensure all planktonic cells were removed. The HA discs were then transferred to sterile bijoux bottles containing 1 ml of phosphate buffered saline (PBS) plus test compound(s) at the required concentration. After a set time period (usually 2 and/or 5 min), the HA disc was transferred to another sterile bijoux containing 1 ml of fresh growth media. Adherent cells were then harvested by vigorous vortexing for 2 minutes. A sample was then taken, serially diluted 10-fold in fresh growth media and inoculated onto agar plates in triplicate. Untreated HA discs, and HA discs added to PBS containing only the solvents used to dissolve the test compound(s), acted as controls. The plates were then incubated as described above and subsequently examined visually for growth. Colonies were counted at an appropriate serial dilution (5-50 individual colonies visible) with the aid of a colony counter. These measurements were then converted to numbers of colony forming units (cfu), using the formula: cfu/ml=number of colonies×serial dilution factor×100 (as only a 10 μl sample was taken). These cfu values were then converted into log10 values and plotted graphically against time of sample removal. At each time point, samples were assessed in triplicate; the final cfu/ml value was an average (mean) of the three readings. Biofilm disruption assays, as described above, were carried out using TBHQ as the test compound and chlorhexidine as a positive control. The negative control was 5% ethanol. For these experiments, the TBHQ and chlorhexidine were tested at concentrations of 0.2% w/v. The TBHQ was dissolved in ethanol and the chlorhexidine in distilled water. All the experiments were conducted in triplicate.

[5] = test system: S. mutans ATCC 25175 biofilm; experiment: Biofilm disruption assay on hydroxyapatite discs; assay type: cell-based, Streptococcus mutans; settings: 0.2% (w/v)
Description: as §12

S. mutans ATCC 25175 [6] = experiment: Minimum bactericidal concentration (MBC) assay; assay type: cell-based, Streptococcus mutans
Description: S. mutans was cultured and maintained on Wilkins-Chalgren Anaerobe Medium (agar and broth) at pH 7.0 supplemented with 1 g/L glucose; all cultures were incubated at 37° C. for 48 hours in an atmosphere containing 5% CO2. For the formation of biofilms in biofilm disruption assays, however, S. mutans was grown in brain-heart infusion broth supplemented with 5% sucrose.
as §2, §3, §4

S. mutans ATCC 25175 [7] = experiment: Minimum inhibitory concentration (MIC) assay; assay type: cell-based, Streptococcus mutans
Description: as §1, with “S. mutans was” for “P. gingivalis strains were”, “7.0 supplemented with 1 g/L glucose;” for “7.0;”, “incubated” for “incubated anaerobically”, “48 hours in an atmosphere containing 5% CO2. For the formation of biofilms in biofilm disruption assays, however, S. mutans was grown in brain-heart infusion broth supplemented with 5% sucrose.” for “5-7 days.”

S. mutans ATCC 25175 [8] = experiment: Short-contact kill assay (SCKA); assay type: cell-based, Streptococcus mutans; settings: 0.2% (w/v)
Description: as §5, §6, §7, §8, §9, §10, §11

[9] = test system: Pseudomonas aeruginosa ATCC 27853; experiment: MBC assay; assay type: cell-based
Description: as §2, §3

[10] = test system: Acinetobacter baumanni ATCC 19606; experiment: MBC assay; assay type: cell-based
Description: as §2, §3

[11] = test system: Escherichia coli ATCC 25922; experiment: MBC assay; assay type: cell-based
Description: as §2, §3

[12] = test system: Klebsiella pneumoniae ATCC 700603; experiment: MBC assay; assay type: cell-based
Description: as §2, §3

[13] = 1 min, 3.00 = limit of detection
[14] = 5 min, 2.00 = limit of detection
[15] = 0.5 min, 3.00 = limit of detection

Row | SMILES | MIC (P. gingivalis NCTC 11834 [1]; Table 7) [µg/mL] | MIC (S. mutans ATCC 25175 [7]; Table 8) [µg/mL] | MIC/MBC ratio (P. gingivalis NCTC 11834 [2]; Tables 1, 2) | Viable cell counts (P. gingivalis NCTC 11834 [3]; 0 min) [Log10 cfu/ml] | Viable cell counts (P. gingivalis NCTC 11834 [3]; 0.5 min) | Viable cell counts (P. gingivalis NCTC 11834 [3]; [13]) | Viable cell counts ([4]; 0 min) [Log10 cfu/ml] | Viable cell counts ([4]; 2 min) [Log10 cfu/ml] | Viable cell counts [4, 14] | Viable cell counts ([5]; 0 min) [Log10 cfu/ml] | Viable cell counts ([5]; 2 min) [Log10 cfu/ml] | Viable cell counts ([5]; 5 min) [Log10 cfu/ml] | MIC/MBC ratio (S. mutans ATCC 25175 [6]; Tables 1, 2) | Viable cell counts (S. mutans ATCC 25175 [8]; 0 min) [Log10 cfu/ml] | Viable cell counts (S. mutans ATCC 25175 [8]; [15]) | Viable cell counts (S. mutans ATCC 25175 [8]; [13]) | MBC (P. gingivalis NCTC 11834 [2]; Table 7) [µg/mL] | MIC/MBC ratio (P. gingivalis NCTC 11834 [2]; Table 7) | MBC (S. mutans ATCC 25175 [6]; Table 8) [µg/mL] | MIC/MBC ratio (S. mutans ATCC 25175 [6]; Table 8) | also measured
1 | [H]/N=C(\N/C(=N/[H])NCCCCCCNC(=N)NC(=N)Nc1ccc(Cl)cc1)Nc1ccc(Cl)cc1 [CHX, chlorhexidine, reference compound] | – | – | 1 | 9.29 | *3.00 Log10 cfu/ml | *3.00 Log10 cfu/ml | 7.74 | 6.08 | 6.29 Log10 cfu/ml | 6.36 | 5.00 | 5.21 | 0.5 | 8.05 | *3.00 Log10 cfu/ml | *3.00 Log10 cfu/ml | – | – | – | – | MIC (P. gingivalis NCTC 11834 [1]; Porphyromonas gingivalis, NCTC11834, Tables 1, 2, read-out: MIC): 0.98 µg/mL (≈ 1.94 µM); MBC (P. gingivalis NCTC 11834 [2]; Porphyromonas gingivalis, NCTC11834, Tables 1, 2, read-out: MBC): 0.98 µg/mL (≈ 1.94 µM); MBC (S. mutans ATCC 25175 [6]; Streptococcus mutans, ATCC25175, Tables 1, 2, read-out: MBC): 1.25 µg/mL (≈ 2.47 µM); MIC (S. mutans ATCC 25175 [7]; Streptococcus mutans, ATCC25175, Tables 1, 2, read-out: MIC): 0.625 µg/mL (≈ 1.24 µM)
2 | CC(C)(C)c1cc(O)ccc1O [TBHQ, t-butyl-p-hydroquinone] | – | – | 0.5 | 9.32 | 6.50 Log10 cfu/ml | *3.00 Log10 cfu/ml | 7.74 | 6.52 | *2.00 Log10 cfu/ml | 6.36 | 6.52 | 6.24 | 1 | 7.64 | 7.56 Log10 cfu/ml | 7.36 Log10 cfu/ml | – | – | – | – | MIC (P. gingivalis NCTC 11834 [1]; Tables 1, 2): 0.49 µg/mL (≈ 2.95 µM); MBC (P. gingivalis NCTC 11834 [2]; Tables 1, 2): 0.98 µg/mL (≈ 5.9 µM); MBC (S. mutans ATCC 25175 [6]; Tables 1, 2): 31.25 µg/mL (≈ 188 µM); MIC (S. mutans ATCC 25175 [7]; Tables 1, 2): 31.25 µg/mL (≈ 188 µM); MBC [9]: > 1000 µg/mL; MBC [10]: 500 µg/mL (≈ 3010 µM); MBC [11]: 500 µg/mL (≈ 3010 µM); MBC [12]: 1000 µg/mL (≈ 6020 µM)
3 | CC1=CC(=O)C(Cl)=CC1=O [2-chloro-5-methyl-p-benzoquinone] | 0.98 (≈ 6.26 µM) | 62.5 (≈ 399 µM) | – | – | – | – | – | – | – | – | – | – | – | – | – | – | 1.95 (≈ 12.5 µM) | 0.5 | 125 (≈ 798 µM) | 0.5 | –
4 | CCc1cc(O)ccc1O [2-ethyl-p-hydroquinone] | 0.98 (≈ 7.09 µM) | 31.2 (≈ 226 µM) | – | – | – | – | – | – | – | – | – | – | – | – | – | – | 1.95 (≈ 14.1 µM) | 0.5 | 125 (≈ 905 µM) | 0.25 | –
5 | CC1=CC(=O)C(C(C)C)=CC1=O [Thymoquinone, thymoquinone] | 0.49 (≈ 2.98 µM) | 3.9 (≈ 23.8 µM) | – | – | – | – | – | – | – | – | – | – | – | – | – | – | 0.98 (≈ 5.97 µM) | 0.5 | > 250 | <0.0156 | –
